The source made the active and inactive calls. The rule behind the calls is not given here.
Assays:
Mus musculus [1] = experiment: General behavior in mice after oral administration (1000 mg/kg) using acute toxicity assay; normal; format: functional, organism-based
[2] = Percent mortality in mice after oral administration (1000 mg/kg) using acute toxicity assay; format: organism-based; details: mouse, in vivo
Mus musculus [3] = species on record: Mus musculus; experiment: Analgesic activity in mice using p-phenylquinone test.; format: functional
Mus musculus [4] = experiment: General behavior in mice after oral administration (1000 mg/kg) using acute toxicity assay; convulsions; format: functional, organism-based
Rattus norvegicus [5] = experiment: Anti-inflammatory effect expressed as % inhibition at 100 mg/kg in acute carrageenan paw edema test in rats; format: functional
Mus musculus [6] = experiment: General behavior in mice after oral administration (1000 mg/kg) using acute toxicity assay; Convulsions; format: functional, organism-based
Mus musculus [7] = experiment: General behavior in mice after oral administration (1000 mg/kg) using acute toxicity assay; decreased locomotor activity, decreased muscular tonus; format: functional, organism-based
Rattus norvegicus [8] = experiment: Anti-inflammatory effect expressed as % inhibition at 50 mg/kg in acute carrageenan paw edema test in rats; format: functional
[9] = Percent mortality in mice after oral administration (500 mg/kg) using acute toxicity assay; format: organism-based; details: mouse, in vivo
Mus musculus [10] = experiment: General behavior in mice after oral administration (500 mg/kg) using acute toxicity assay; Convulsions; format: functional, organism-based
Rattus norvegicus [11] = experiment: Anti-inflammatory effect expressed as % inhibition at 50 mg/kg in acute carrageenan paw edema test in rats; No inhibition; format: functional, organism-based; set-up: dose 50 mg/kg
Mus musculus [12] = experiment: General behavior in mice after oral administration (1000 mg/kg) using acute toxicity assay; Normal; format: functional, organism-based
Mus musculus [13] = experiment: General behavior in mice after oral administration (750 mg/kg) using acute toxicity assay; Convulsions; format: functional, organism-based
[14] = Percent mortality in mice after oral administration (750 mg/kg) using acute toxicity assay; format: organism-based; details: mouse, in vivo
Mus musculus [15] = experiment: General behavior in mice after oral administration (500 mg/kg) using acute toxicity assay; Increased muscular tonus; format: functional, organism-based
Mus musculus [16] = experiment: General behavior in mice after oral administration (1000 mg/kg) using acute toxicity assay; decreased locomotor activity, increased muscular tonus; format: functional, organism-based
Mus musculus [17] = experiment: General behavior in mice after oral administration (1000 mg/kg) using acute toxicity assay; Increased locomotor activity, convulsive tendency; format: functional, organism-based
Rattus norvegicus [18] = experiment: Anti-inflammatory effect expressed as % inhibition at 100 mg/kg in acute carrageenan paw edema test in rats; No inhibition; format: functional, organism-based; set-up: dose 100 mg/kg
Mus musculus [19] = experiment: General behavior in mice after oral administration (1000 mg/kg) using acute toxicity assay; sedation, decreased muscular tonus; format: functional, organism-based
Mus musculus [20] = experiment: General behavior in mice after oral administration (1000 mg/kg) using acute toxicity assay; Increased muscular tonus; format: functional, organism-based
Mus musculus [21] = experiment: General behavior in mice after oral administration (1000 mg/kg) using acute toxicity assay; decreased muscular tonus; format: functional, organism-based

Compound	mortality [2] [%]	ED50 (Mus musculus [3]) [mg/kg]	inhibition in vivo at 50 mg/kg (Rattus norvegicus [8]) [%]	also measured
O=c1oc2cc(Br)cnc2n1CCN1CCN(c2ccccc2)CC1	0	34.1	–	Behavior (Mus musculus [1]): normal
O=c1oc2cccnc2n1CCN1CCCCC1	66	> 25	–	Behavior (Mus musculus [4]): convulsions; inhibition in vivo at 100 mg/kg (Rattus norvegicus [5]): 21%
CCN(CC)CCn1c(=O)oc2cccnc21	83	> 25	–	Behavior (Mus musculus [6]): Convulsions
O=c1oc2cccnc2n1CCCN1CCN(c2ccccc2)CC1	10	15.5	16	Behavior (Mus musculus [7]): decreased locomotor activity, decreased muscular tonus
O=c1oc2cccnc2n1CN1CCN(c2ccc(F)cc2)CC1	–	3.5	–	mortality [9]: 100%; Behavior (Mus musculus [10]): Convulsions
O=c1oc2ccccc2n1CCN1CCN(c2cccc(C(F)(F)F)c2)CC1	0	30.2	–	inhibition (Rattus norvegicus [11]): inactive; Behavior (Mus musculus [12]): Normal
COc1ccc2c3c1O[C@H]1[C@@H](O)C=C[C@H]4[C@@H](C2)N(C)CC[C@@]341 [CODEINE]	–	9.7	20	Behavior (Mus musculus [13]): Active; mortality [14]: 40%
O=c1oc2cccnc2n1CN1CCN(c2ccc(Cl)cc2)CC1	–	10.6	23	mortality [9]: 90%; Behavior (Mus musculus [10]): Convulsions
O=C(OCC(O)CO)c1ccccc1Nc1ccnc2cc(Cl)ccc12 (stereo not drawn) [GLAFENINE]	30	29.3	36	Behavior (Mus musculus [12]): inactive
O=c1oc2cccnc2n1CN1CCN(c2cccc(C(F)(F)F)c2)CC1	–	3.6	25	Behavior (Mus musculus [15]): Increased muscular tonus; mortality [9]: 50%
Cc1ccc2oc(=O)n(CCN3CCN(c4ccccc4)CC3)c2n1	0	> 50	–	inhibition in vivo at 100 mg/kg (Rattus norvegicus [5]): 2%; Behavior (Mus musculus [12]): Normal
O=c1oc2cccnc2n1CCN1CCN(c2ccccc2)CC1	0	19.4	13	Behavior (Mus musculus [12]): Normal
O=c1oc2cccnc2n1CCN1CCN(c2ccc(Cl)cc2)CC1	0	> 50	–	Behavior (Mus musculus [16]): decreased locomotor activity, increased muscular tonus
O=c1oc2cccnc2n1CCN1CCN(c2ccc(Oc3ccccc3)cc2)CC1	0	> 50	–	Behavior (Mus musculus [1]): normal
O=c1oc2cccnc2n1CCN1CCN(c2cccc(C(F)(F)F)c2)CC1	0	11.4	–	inhibition (Rattus norvegicus [11]): inactive; Behavior (Mus musculus [17]): Increased locomotor activity, convulsive tendancy
COc1ccccc1N1CCN(Cn2c(=O)oc3cccnc32)CC1	–	> 25	15	mortality [9]: 100%; Behavior (Mus musculus [10]): Convulsions
CN1CCN(CCn2c(=O)oc3cccnc32)CC1	50	> 25	–	inhibition (Rattus norvegicus [18]): inactive; Behavior (Mus musculus [6]): Convulsions
COc1ccccc1N1CCN(CCn2c(=O)oc3cccnc32)CC1	0	> 50	–	inhibition (Rattus norvegicus [18]): inactive; Behavior (Mus musculus [12]): Normal
O=c1oc2cccnc2n1CN1CCN(c2ccccc2Cl)CC1	–	22.2	–	mortality [9]: 100%; inhibition (Rattus norvegicus [11]): inactive; Behavior (Mus musculus [10]): Convulsions
O=c1oc2cccnc2n1CCCN1CCN(c2cccc(C(F)(F)F)c2)CC1	50	22	–	inhibition (Rattus norvegicus [11]): inactive; Behavior (Mus musculus [4]): convulsions
O=c1oc2ccccc2n1CCN1CCN(c2ccccc2)CC1	0	> 50	1	Behavior (Mus musculus [19]): sedation, decreased muscular tonus
O=c1oc2cccnc2n1CCCCN1CCN(c2ccccc2)CC1	100	> 25	–	Behavior (Mus musculus [6]): Convulsions
O=c1oc2cccnc2n1CN1CCN(c2cccc(Cl)c2)CC1	–	10.5	27	mortality [9]: 100%; Behavior (Mus musculus [10]): Convulsions
O=c1oc2cccnc2n1CCN1CCOCC1	50	> 25	–	inhibition in vivo at 100 mg/kg (Rattus norvegicus [5]): 7%; Behavior (Mus musculus [20]): Increased muscular tonus
O=c1oc2cccnc2n1CCN1CCN(c2ccc(F)cc2)CC1	0	41.3	16	Behavior (Mus musculus [21]): decreased muscular tonus
O=c1oc2cccnc2n1CN1CCN(c2ccccc2)CC1	–	5.9	11	mortality [9]: 70%; Behavior (Mus musculus [10]): Convulsions

From ChEMBL document CHEMBL1126598, “Novel nonopioid non-antiinflammatory analgesics: 3-(aminoalkyl)- and 3-[(4-aryl-1-piperazinyl)alkyl]oxazolo[4,5-b]pyridin-2(3H)-ones” (J Med Chem, 1993)
